Source: paper PMC6508583 (Journal of the American Chemical Society, 2019)
Values after ≈ are worked out from the molar mass of the structure shown. Values joined by “and” are separate entries in the source; they are usually repeats but may differ in a detail not shown here. Identical values can stand only once.

Columns and labels:
[1] = test system: wild-type bacterial ribosome; experiment: Cell-free translation assay, wild-type bacterial ribosome; format: biochemical; details: in vitro translation inhibition
[2] = test system: Mit13 hybrid ribosome (decoding A site of the human mitochondrial ribosome); format: biochemical
[3] = test system: A1555G mutant mitochondrial hybrid ribosome; format: biochemical, human
[4] = test system: Cyt14 hybrid ribosome (decoding A site of the human cytoplasmic ribosome); format: biochemical
MRSA = experiment: Antibacterial activity against reference strains: MRSA; format: cell-based
K. pneumoniae = experiment: Antibacterial activity against reference strains: K. pneumoniae; format: cell-based; details: strain AG215
E. cloacae = experiment: Antibacterial activity against reference strains: E. cloacae; format: cell-based; details: strain AG290
A. baumannii = experiment: Antibacterial activity against reference strains: A. baumannii; format: cell-based; details: strain AG225
[5] = test system: E coli 70S ribosome (helix 44, A1408); experiment: Quantitative dimethyl sulfate footprinting of the 70S ribosome; format: binding; details: read-out: apparent Kd; DMS footprinting, % protection of N1 of A1408, E. coli 70S ribosome
[6] = test system: E. coli carrying specific resistance determinants; experiment: Activity against wild-type and engineered E. coli carrying specific AMEs or RMTs; format: cell-based
[7] = test system: wild-type E. coli clinical isolates; experiment: MIC distribution, clinical wild-type E. coli isolates; format: cell-based; details: panel of wild-type clinical isolates
[8] = test system: wild-type K. pneumoniae clinical isolates; experiment: MIC distribution, clinical wild-type K. pneumoniae isolates; format: cell-based; details: panel of wild-type clinical isolates
[9] = test system: wild-type E. cloacae clinical isolates; experiment: MIC distribution, clinical wild-type E. cloacae isolates; format: cell-based; details: panel of wild-type clinical isolates
[10] = test system: E. coli clinical isolates carrying two or more resistance determinants; experiment: Activity against E. coli clinical isolates with multiple resistance determinants; format: cell-based
[11] = test system: K. pneumoniae clinical isolates carrying two or more resistance determinants; format: cell-based; details: AAC(3), AAC(6’)
[12] = test system: E. cloacae clinical isolates carrying two or more resistance determinants; format: cell-based; details: AAC(6’)
Mycobacterium abscessus = experiment: microbe, parasite or virus in culture; format: cell-based
[13] = test system: Mycobacterium tuberculosis clinical isolates; experiment: microbe, parasite or virus in culture; format: cell-based; details: clinical isolates
E coli = experiment: Neutropenic mouse thigh infection model; format: in vivo; details: dose 3 mg.kg^−1
E. coli [14] = experiment: Neutropenic mouse E. coli septicemia model; format: in vivo
[15] = test system: NIH 3T3 mouse embryonic fibroblast cells; format: cell-based
[16] = test system: Mycobacterium smegmatis wild type; experiment: Antibacterial activity, wild-type M. smegmatis
E. coli [17] = experiment: Antibacterial activity against reference strains: E. coli
P. aeruginosa = experiment: Antibacterial activity against reference strains: P. aeruginosa

CCC[C@H]1[C@H](O)[C@@H](N)[C@@H](O[C@H]2[C@H](O[C@@H]3O[C@H](CO)[C@@H](O[C@H]4O[C@@H](CN)[C@@H](O)[C@H](O)[C@H]4N)[C@H]3O)[C@@H](O)[C@H](N)C[C@@H]2N)O[C@@H]1CO [Compound 5, 4’-deoxy-4’-propylparomomycin]
IC50 wt [1]: 0.03 µg/mL (≈ 0.0467 µM) | Selectivity Mit 13 ([2]; Mit13 over wt bacterial ribosome): 5567 | IC50 Mit13 ([2]; in vitro translation inhibition, Mit13 hybrid ribosome): 167 µg/mL (≈ 260 µM) | Selectivity A1555G ([3]; A1555G over wt bacterial ribosome): 1733 | IC50 A1555G ([3]; in vitro translation inhibition, A1555G mutant mitochondrial hybrid ribosome): 52 µg/mL (≈ 81 µM) | Selectivity Cyt14 ([4]; Cyt14 over wt bacterial ribosome): 2133 | IC50 Cyt 14 ([4]; in vitro translation inhibition, Cyt14 hybrid ribosome): 64 µg/mL (≈ 99.7 µM) | Antibacterial activity (MIC) MRSA AG038 (MRSA; strain AG038): 1 to 2 µg/mL | Antibacterial activity (MIC) MRSA AG042 (MRSA; strain AG042 carries the AAC(6)’, ANT(4’,4’’) and APH(3’) genes): 2 µg/mL | Antibacterial activity (MIC) K. pneumoniae AG215 (K. pneumoniae): 0.5 µg/mL | Antibacterial activity (MIC) E. cloacae AG290 (E. cloacae): 0.5 to 1 µg/mL | Antibacterial activity (MIC) A. baumannii AG225 (A. baumannii): 2 µg/mL | Kd [5]: 340 ± 50 nM | Activity (MIC) E. coli AG006 ([6]; strain AG006, WT): 0.5 to 1 µg/mL | Activity (MIC) E. coli AG007 ([6]; strain AG007, AAC(3)): 2 µg/mL | Activity (MIC) E. coli AG008 ([6]; strain AG008, ANT(2’’)): 0.5 to 1 µg/mL | Activity (MIC) E. coli AG009 ([6]; strain AG009, AAC(6’)): 1 to 2 µg/mL | Activity (MIC) E. coli AG036 ([6]; strain AG036, ANT(4′,4′′)): 1 µg/mL | Activity (MIC) E. coli AG103 ([6]; strain AG103, armA): 2 µg/mL | Activity (MIC) E. coli AG105 ([6]; strain AG105, AAC(2′)): 1 µg/mL | Activity (MIC) E. coli AG166 ([6]; strain AG166, APH(3′)): 1 to 2 µg/mL | MIC90 E. coli [7]: 2 µg/mL (≈ 3.12 µM) | MIC90 K. pneumoniae [8]: 1 µg/mL (≈ 1.56 µM) | MIC90 E. cloacae [9]: 1 µg/mL (≈ 1.56 µM) | Activity (MIC) E. coli isolate 201430298 ([10]; AAC(3), AAC(6’)): 1 µg/mL | Activity (MIC) E. coli isolate 2014251408 ([10]; AAC(3), AAC(6’)): 2 µg/mL | Activity (MIC) E. coli isolate 2014405344 ([10]; AAC(3), APH(3’), RmtB): 4 µg/mL | Activity (MIC) E. coli isolate 201441114 ([10]; AAC(6’), ANT(2’’)): 1 µg/mL | Activity (MIC) K. pneumoniae isolate 201440494 [11]: 0.5 µg/mL | Activity (MIC) K. pneumoniae isolate 2014310114 [11]: 0.25 µg/mL | Activity (MIC) K. pneumoniae isolate 2014310108 ([11]; RmtB): 1 µg/mL | Activity (MIC) E. cloacae isolate 201435487 ([12]; AAC(3)): 0.5 µg/mL | Activity (MIC) E. cloacae isolate 201333207 ([12]; AAC(3), APH(3’)): 0.5 µg/mL | Activity (MIC) E. cloacae isolate 201385168 ([12]; AAC(3), RmtC): 1 µg/mL | Activity (MIC) E. cloacae isolate 201430601 ([12]; ANT(2’’)): 0.5 µg/mL | MIC M. abscessus, AAC(2’) gene deleted (Mycobacterium abscessus; AAC(2’) gene deleted): 4 µg/mL and 2 µg/mL | MIC M. abscessus (Mycobacterium abscessus; AAC(2’) gene present): 4 µg/mL (≈ 6.23 µM) | MIC M. tuberculosis clinical isolates [13]: 1 µg/mL (≈ 1.56 µM) | log reduction in colony-forming units (CFUs) compared to vehicle (E coli): 1.5 log | reduction of bacterial burden in the blood, more than the parent paromomycin at the same dose level (E. coli [14]; 4 mg.kg^−1): 1 log | reduction of bacterial burden in the blood (E. coli [14]; 4 mg.kg^−1 dose): approximately 1.5 log units | loss of cell viability [15]: only minimal loss of cell viability | Antibacterial activity (MIC) Wild-type M. smegmatis [16]: 0.16 µg/mL | Antibacterial activity (MIC) E. coli AG001 (E. coli [17]; strain AG001): 1 to 2 µg/mL | Antibacterial activity (MIC) E. coli AG003 (E. coli [17]; strain AG003 carries the AAC(3) gene): 1 to 2 µg/mL | Antibacterial activity (MIC) P. aeruginosa AG031 (P. aeruginosa; strain AG031 carries the APH(3’) gene): 8 µg/mL | Antibacterial activity (MIC) P. aeruginosa AG220 (P. aeruginosa; strain AG220 carries the APH(3’) gene): 2 to 4 µg/mL
